# Measured values reported in US20200207829A1, “CHIMERIC RECEPTORS” (Oxford University Innovation Limited, priority 2017, published 2020).
# Biological target: T1, dCas9(N/C)-synLPAR1 (Homo sapiens, UniProt Q92633)
# T1 construct: TEV cleavage site ENLYFQL (TCS(Q'L)) (C); P2A + puromycin resistance protein (C, cleaved yes); TEV cleavage site ENLYFQG (TCS(Q'G)) (C); T2A + MCP-P65-HSF1 (C, cleaved yes); expressed in transfected cells; host or cells: HTLA cells (HEK-293 stably expressing beta-arrestin2-TEV fusion)
# T1 sequence (Q92633 with tags, fused parts or gaps): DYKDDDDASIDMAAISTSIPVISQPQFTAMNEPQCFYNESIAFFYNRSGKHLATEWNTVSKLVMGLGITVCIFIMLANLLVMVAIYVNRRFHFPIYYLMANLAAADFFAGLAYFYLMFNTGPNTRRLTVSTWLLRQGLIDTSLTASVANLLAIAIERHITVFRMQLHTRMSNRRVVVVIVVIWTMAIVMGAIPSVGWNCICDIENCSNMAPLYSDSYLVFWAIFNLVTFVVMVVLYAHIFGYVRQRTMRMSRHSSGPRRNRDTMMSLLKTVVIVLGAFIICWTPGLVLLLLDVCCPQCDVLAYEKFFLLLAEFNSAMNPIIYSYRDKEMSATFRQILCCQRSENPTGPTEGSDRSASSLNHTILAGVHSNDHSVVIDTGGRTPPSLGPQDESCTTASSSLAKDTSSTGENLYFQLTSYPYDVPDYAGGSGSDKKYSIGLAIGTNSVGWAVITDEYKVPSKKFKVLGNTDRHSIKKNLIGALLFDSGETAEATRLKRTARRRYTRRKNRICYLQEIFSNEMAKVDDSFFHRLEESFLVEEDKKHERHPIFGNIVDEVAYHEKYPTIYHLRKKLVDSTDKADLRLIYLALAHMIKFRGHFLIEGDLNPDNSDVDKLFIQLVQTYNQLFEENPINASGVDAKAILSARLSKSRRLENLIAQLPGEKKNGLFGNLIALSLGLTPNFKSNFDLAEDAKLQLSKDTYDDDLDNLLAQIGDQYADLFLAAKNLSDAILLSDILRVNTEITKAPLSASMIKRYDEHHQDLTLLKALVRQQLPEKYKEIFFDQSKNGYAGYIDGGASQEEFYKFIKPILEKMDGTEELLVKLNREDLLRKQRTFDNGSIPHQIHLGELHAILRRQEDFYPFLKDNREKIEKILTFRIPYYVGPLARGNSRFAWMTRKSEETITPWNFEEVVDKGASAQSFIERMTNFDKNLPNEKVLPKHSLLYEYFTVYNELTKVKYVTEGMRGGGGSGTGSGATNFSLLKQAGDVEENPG
# T1 sequence (Q92633 with tags, fused parts or gaps): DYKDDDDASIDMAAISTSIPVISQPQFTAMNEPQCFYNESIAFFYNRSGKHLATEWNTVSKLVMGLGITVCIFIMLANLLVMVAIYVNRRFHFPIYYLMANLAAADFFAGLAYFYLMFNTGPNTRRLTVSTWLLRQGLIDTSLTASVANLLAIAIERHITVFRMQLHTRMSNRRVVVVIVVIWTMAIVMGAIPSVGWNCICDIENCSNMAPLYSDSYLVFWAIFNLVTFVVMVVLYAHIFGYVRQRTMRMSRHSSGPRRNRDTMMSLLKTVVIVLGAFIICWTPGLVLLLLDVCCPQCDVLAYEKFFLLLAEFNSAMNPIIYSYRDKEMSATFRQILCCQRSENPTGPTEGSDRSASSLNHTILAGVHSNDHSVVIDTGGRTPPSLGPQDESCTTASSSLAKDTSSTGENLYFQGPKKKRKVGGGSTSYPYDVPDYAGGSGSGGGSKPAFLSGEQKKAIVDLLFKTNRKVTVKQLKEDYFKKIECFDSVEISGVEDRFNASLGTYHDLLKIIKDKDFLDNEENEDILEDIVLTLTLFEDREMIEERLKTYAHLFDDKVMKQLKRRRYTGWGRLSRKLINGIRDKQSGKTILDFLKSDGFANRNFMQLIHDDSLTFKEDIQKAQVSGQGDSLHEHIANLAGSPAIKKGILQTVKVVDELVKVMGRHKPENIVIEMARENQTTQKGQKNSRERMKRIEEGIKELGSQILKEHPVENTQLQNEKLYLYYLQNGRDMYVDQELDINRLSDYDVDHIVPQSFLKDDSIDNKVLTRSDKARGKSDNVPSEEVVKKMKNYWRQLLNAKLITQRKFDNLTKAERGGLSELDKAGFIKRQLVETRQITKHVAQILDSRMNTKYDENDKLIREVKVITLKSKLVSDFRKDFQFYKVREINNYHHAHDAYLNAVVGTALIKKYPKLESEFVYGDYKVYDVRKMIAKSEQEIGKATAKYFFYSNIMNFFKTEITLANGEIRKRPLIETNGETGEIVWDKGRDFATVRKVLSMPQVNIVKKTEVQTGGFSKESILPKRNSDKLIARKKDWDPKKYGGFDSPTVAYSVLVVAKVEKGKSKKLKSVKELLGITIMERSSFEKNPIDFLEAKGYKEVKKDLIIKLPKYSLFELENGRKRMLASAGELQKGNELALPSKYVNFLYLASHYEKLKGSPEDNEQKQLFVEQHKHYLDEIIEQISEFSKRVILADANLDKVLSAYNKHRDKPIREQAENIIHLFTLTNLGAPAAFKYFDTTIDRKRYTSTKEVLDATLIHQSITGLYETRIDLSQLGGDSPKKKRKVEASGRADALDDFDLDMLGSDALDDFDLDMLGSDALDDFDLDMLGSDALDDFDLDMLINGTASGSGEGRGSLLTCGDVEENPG
# Assay: LPA dose-response of dCas9(N/C)-synLPAR1 (EYFP activation score, HTLA cells)
# Assay type: cell-based
# Conditions: sgEYFP, read-out: EC50 of LPA dose-dependent activation
# Method: Transfection mixtures were vortexed for 10 seconds and incubated at room temperature for 20-30 minutes. Full media was removed from cells and replaced with experiment-specific transfection media prior to adding the DNA:PEI transfection mix as follows. For dCas9(N/C)-synBDKBR2 experiments, HTLA cells were transfected in DMEM+2% (v/v) FBS supplemented with bradykinin at indicated concentrations. The bradykinin transfection media was replaced after 20 hours with HTLA full media also supplemented with bradykinin, and incubated for an additional 24 hours. […]
# For all EYFP reporter experiments, media was removed 44 or 48 hours post-transfection and cells were washed with PBS (1× phosphate buffer saline), trypsinized (0.05% trypsin-EDTA, Cat. #25300062, Gibco), and kept in 1×PBS on ice. […] 100,000 total events were recorded for each condition. Data was analysed and compensated using the FlowJo package (FLOWJO LLC). To calculate an EYFP activation score which integrates both reporter fluorescence intensity and % of activated cells the following formula was used as previously described (Xie et al., 2011). […]
# The numerator (% EYFP^+ve×EYFP^mean) provides a weighted mean fluorescence accounting both for the strength of reporter activation (EYFP^mean) as well as population level activation (% EYFP^+ve), which penalizes OFF-state leakage. […]
substance,measurement,value
1-oleoyl lysophosphatidic acid [LPA],EC50,1820 nM
